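Interpolation was linear, between the two tested concentrations surrounding the appropriate level; five concentrations were tested over 48 hours in 96-well plates. At the GI50, growth is halved.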 The source made the active and inactive calls. Rule as the data show it: active = GI50 up to about 1.1 µM and inactive = higher.
Experiments:
Assay in all cases: NCI-60 cell line screen, 48 h
MDA-N = tested on: MDA-N
SNB-19 = tested on: SNB-19
HCT-15 = tested on: HCT-15
SR = tested on: SR
OVCAR-8 = tested on: OVCAR-8
LOX IMVI = tested on: LOX IMVI
MOLT-4 = tested on: MOLT-4
SF-295 = tested on: SF-295
Malme-3M = tested on: Malme-3M
SN12C = tested on: SN12C
IGROV-1 = tested on: IGROV-1
KM12 = tested on: KM12
UACC-257 = tested on: UACC-257
NCI-H460 = tested on: NCI-H460
DU-145 = tested on: DU-145
UO-31 = tested on: UO-31
SF-539 = tested on: SF-539
NCI/ADR-RES = tested on: NCI/ADR-RES
EKVX = tested on: EKVX

Compound | GI50 (MDA-N) | GI50 (SNB-19) | GI50 (HCT-15) [µM] | GI50 (SR) | GI50 (OVCAR-8) | GI50 (LOX IMVI) | GI50 (MOLT-4) | GI50 (SF-295) | GI50 (Malme-3M) | GI50 (SN12C) | GI50 (IGROV-1) | GI50 (KM12) | GI50 (UACC-257) | GI50 (NCI-H460) | GI50 (DU-145) | GI50 (UO-31) | GI50 (SF-539) | GI50 (NCI/ADR-RES) | GI50 (EKVX)
C/C(CC(O)(C(F)(F)F)C(F)(F)F)=N\NC(N)=O | > 10 µM (inactive) | > 10 µM (inactive) | > 10 | > 10 µM (inactive) | > 10 µM (inactive) | > 10 µM (inactive) | > 10 µM (inactive) | > 10 µM (inactive) | > 10 µM (inactive) | > 10 µM (inactive) | > 10 µM (inactive) | > 10 µM (inactive) | > 10 µM (inactive) | > 10 µM (inactive) | > 10 µM (inactive) | > 10 µM (inactive) | > 10 µM (inactive) | > 10 µM (inactive) | > 10 µM (inactive)
CCCCCCOc1ccc(C(=O)N(C)O)cc1 | 27.6 µM (inactive) | 24.2 µM (inactive) | 4.41 | 6.35 µM (inactive) | 11.7 µM (inactive) | 7.52 µM (inactive) | 4.97 µM (inactive) | 9.55 µM (inactive) | 14.1 µM (inactive) | 11.9 µM (inactive) | 11.5 µM (inactive) | 24 µM (inactive) | 36.6 µM (inactive) | 6.12 µM (inactive) | 16.5 µM (inactive) | 9.48 µM (inactive) | 15 µM (inactive) | 10.1 µM (inactive) | 20.3 µM (inactive)
CC(=O)NC1=C(C)C(=O)c2c(nc3n2CC[C@H]3OC(C)=O)C1=O | 0.628 µM (active) | 5.5 µM (inactive) | 3.58 | 0.361 µM (active) | 1.55 µM (inactive) | 0.718 µM (active) | 0.243 µM (active) | 2.1 µM (inactive) | 1.51 µM (inactive) | 1.49 µM (inactive) | 3.07 µM (inactive) | 1.71 µM (inactive) | 1.01 µM (active) | 2.95 µM (inactive) | 15.9 µM (inactive) | 3.01 µM (inactive) | 2.38 µM (inactive) | 2.06 µM (inactive) | 5.25 µM (inactive)
C=C1C[C@]23CC[C@@H]4C(CO)(CO)CC(=O)C[C@]4(C)[C@@H]2CC[C@H]1C3 | > 100 µM (inactive) | 21.5 µM (inactive) | > 100 | > 100 µM (inactive) | > 100 µM (inactive) | > 100 µM (inactive) | > 100 µM (inactive) | > 100 µM (inactive) | > 100 µM (inactive) | > 100 µM (inactive) | 57.9 µM (inactive) |  | > 100 µM (inactive) | > 100 µM (inactive) | > 100 µM (inactive) | 78.5 µM (inactive) | > 100 µM (inactive) | > 100 µM (inactive) | > 100 µM (inactive)
O=C1c2ccccc2C(=O)c2c1c1cc(O)ccc1n2Cc1ccc(Cl)cc1Cl | 12.1 µM (inactive) | 13.4 µM (inactive) | 5.66 | 3.61 µM (inactive) | 4.57 µM (inactive) | 2.9 µM (inactive) | 15.3 µM (inactive) | 7.5 µM (inactive) | 22.8 µM (inactive) | 3.88 µM (inactive) | 6.98 µM (inactive) | 14.4 µM (inactive) | 25.1 µM (inactive) | 3.63 µM (inactive) | 8.13 µM (inactive) | 19.1 µM (inactive) | 3.97 µM (inactive) | 3.08 µM (inactive) | 
CCCCC1CCCCCCc2[nH]c(/C=C3\N=C(c4ccc[nH]4)C=C3OC)cc21 (configuration not stated) | < 0.0139 µM (active) | 0.151 µM (active) | < 0.01 | < 0.01 µM (active) | < 0.0223 µM (active) | < 0.01 µM (active) | < 0.01 µM (active) | < 0.0191 µM (active) | 0.0241 µM (active) | < 0.0185 µM (active) | < 0.0188 µM (active) | < 0.01 µM (active) | 0.13 µM (active) | < 0.01 µM (active) | < 0.0109 µM (active) | 0.0194 µM (active) | 0.0308 µM (active) | < 0.0169 µM (active) | < 0.0167 µM (active)

Reference: ChEMBL document CHEMBL1201862, “PubChem BioAssay data set” (2004)
